Columns and labels:
[1] = Leaching: 10 grams fabric in 100 milliliters distilled water, 7 days, GC-MS; type: physicochemical
Protocol: To test for a potential leaching of the antimicrobial agents fixed to the textile material, the following test was performed. A test fabric of polyester 65%/cotton 35% with 210 g/m2 was treated with polyhexamethylenebiguanide (PHMB) 0.5%, silver chloride 0.075%, octadecylaminomethyl trihydroxysilylpropyl ammonium chloride (organosilane) 0.4%, and propiconazole 0.5%
The treated textile material was put into distilled water at a ratio of 1:10. Specifically, a fabric of 10 grams was soaked in 100 milliliters of distilled water. The fabric was incubated in the water for 7 days at room temperature, i.e. between 21 and 25° C.
Following said incubation time, the fabric was removed from the water and the exposed water was tested for the presence of the above five active ingredients using gas chromatography-mass spectrometry (GC-MS).

[2] = Leaching test: 100 g fabric soaked in 10 liters stagnant distilled water, 3 days (72 hours); type: physicochemical; details: for Leaching of active ingredients: exhaust 80° C. 60 min, cured 180° C. 2 min, post wash
Protocol: (§1) The test procedure for leaching was as follows: 100 g (grams) of fabric as well as control fabrics were soaked in 10 liters of stagnant distilled water in a closed wide mouth jar. After 3 days (72 hours), the water samples were tested for leached substances as per standard analytical methods.
as §1, with “methods. A weight of 100 g fabric was chosen because in the preferred embodiment of the water filter as described further below, each filter comprises a strip of fabric with 210 g/m^2, 3 meters long and 0.16 meters wide, which corresponds to 100 g of fabric.” for “methods.”

## CCCCCCCCCCCCCCCCCC[N+](C)(C)CCC[Si](OC)(OC)OC [Organosilane, dimethyloctadecyl[3-(trimethoxysilyl)propyl] ammonium chloride]
[1]
  Extracted water Conc, ppm: BDL (BDL-below detection limit Detection limit: 1 parts per million (ppm))
[2]; 0.2% each in mixture (o.w.f), exhaust 80° C., 60 min, curing 180° C., 2 min, unwashed
  Leaching of active ingredients (in ppm): 7 ppm
[2]; 0.5% each in mixture (o.w.f), exhaust 80° C., 60 min, curing 180° C., 2 min, unwashed
  Leaching of active ingredients (in ppm): 9 ppm
[2]; 1.0% each in mixture (o.w.f), exhaust 80° C., 60 min, curing 180° C., 2 min, unwashed
  Leaching of active ingredients (in ppm): 17 ppm
[2]; Exhaust + Wash + pad + Wash, exhaust 0.1% o.w.f. each in mixture, 1 gm/liter pad
  Leeching in ppm: 0.1 ppm
[2]; Exhaust + Wash + pad + Wash, exhaust 0.1% o.w.f. each in mixture, 5 gm/liter pad
  Leeching in ppm: 0.2 ppm
[2]; Exhaust + Wash + pad + Wash, exhaust 0.1% o.w.f. each in mixture, 10 gm/liter pad
  Leeching in ppm: 0.4 ppm
[2]; Exhaust + Wash + pad + Wash, exhaust 0.25% o.w.f. each in mixture, 1 gm/liter pad
  Leeching in ppm: 1 ppm
[2]; Exhaust + Wash + pad + Wash, exhaust 0.25% o.w.f. each in mixture, 5 gm/liter pad
  Leeching in ppm: 2 ppm
[2]; Exhaust + Wash + pad + Wash, exhaust 0.25% o.w.f. each in mixture, 10 gm/liter pad
  Leeching in ppm: 5 ppm
[2]; Exhaust + Wash + pad + Wash, exhaust 0.5 (% o.w.f) each in mixture, 1 gm/liter pad
  Leeching in ppm: 3 ppm
[2]; Exhaust + Wash + pad + Wash, exhaust 0.5 (% o.w.f) each in mixture, 5 gm/liter pad
  Leeching in ppm: 7 ppm
[2]; Exhaust + Wash + pad + Wash, exhaust 0.5 (% o.w.f) each in mixture, 10 gm/liter pad
  Leeching in ppm: 9 ppm
[2]; Exhaust + Wash + pad + Wash, exhaust 1.0% o.w.f. each in mixture, 1 gm/liter pad
  Leeching in ppm: 9 ppm
[2]; Exhaust + Wash + pad + Wash, exhaust 1.0% o.w.f. each in mixture, 5 gm/liter pad
  Leeching in ppm: 10 ppm
[2]; Exhaust + Wash + pad + Wash, exhaust 1.0% o.w.f. each in mixture, 10 gm/liter pad
  Leeching in ppm: 15 ppm
[2]; Exhaust + pad + Wash, exhaust 0.1% o.w.f. each in mixture, 1 gm/liter pad
  Leeching in ppm: 143 ppm
[2]; Exhaust + pad + Wash, exhaust 0.1% o.w.f. each in mixture, 5 gm/liter pad
  Leeching in ppm: 238 ppm
[2]; Exhaust + pad + Wash, exhaust 0.1% o.w.f. each in mixture, 10 gm/liter pad
  Leeching in ppm: 249 ppm
[2]; Exhaust + pad + Wash, exhaust 0.25% o.w.f. each in mixture, 1 gm/liter pad
  Leeching in ppm: 265 ppm
[2]; Exhaust + pad + Wash, exhaust 0.25% o.w.f. each in mixture, 5 gm/liter pad
  Leeching in ppm: 249 ppm
[2]; Exhaust + pad + Wash, exhaust 0.25% o.w.f. each in mixture, 10 gm/liter pad
  Leeching in ppm: 523 ppm
[2]; Exhaust + pad + Wash, exhaust 0.5 (% o.w.f) each in mixture, 1 gm/liter pad
  Leeching in ppm: 432 ppm
[2]; Exhaust + pad + Wash, exhaust 0.5 (% o.w.f) each in mixture, 5 gm/liter pad
  Leeching in ppm: 587 ppm
[2]; Exhaust + pad + Wash, exhaust 0.5 (% o.w.f) each in mixture, 10 gm/liter pad
  Leeching in ppm: 637 ppm
[2]; Exhaust + pad + Wash, exhaust 1.0% o.w.f. each in mixture, 1 gm/liter pad
  Leeching in ppm: 536 ppm
[2]; Exhaust + pad + Wash, exhaust 1.0% o.w.f. each in mixture, 5 gm/liter pad
  Leeching in ppm: 657 ppm
[2]; Exhaust + pad + Wash, exhaust 1.0% o.w.f. each in mixture, 10 gm/liter pad
  Leeching in ppm: 856 ppm
[2]; Exhaust + pad, exhaust 0.1% o.w.f. each in mixture, 1 gm/liter pad
  Leeching in ppm: 198 ppm
[2]; Exhaust + pad, exhaust 0.1% o.w.f. each in mixture, 5 gm/liter pad
  Leeching in ppm: 275 ppm
[2]; Exhaust + pad, exhaust 0.1% o.w.f. each in mixture, 10 gm/liter pad
  Leeching in ppm: 374 ppm
[2]; Exhaust + pad, exhaust 0.25% o.w.f. each in mixture, 1 gm/liter pad
  Leeching in ppm: 315 ppm
[2]; Exhaust + pad, exhaust 0.25% o.w.f. each in mixture, 5 gm/liter pad
  Leeching in ppm: 353 ppm
[2]; Exhaust + pad, exhaust 0.25% o.w.f. each in mixture, 10 gm/liter pad
  Leeching in ppm: 356 ppm
[2]; Exhaust + pad, exhaust 0.5 (% o.w.f) each in mixture, 1 gm/liter pad
  Leeching in ppm: 347 ppm
[2]; Exhaust + pad, exhaust 0.5 (% o.w.f) each in mixture, 5 gm/liter pad
  Leeching in ppm: 462 ppm
[2]; Exhaust + pad, exhaust 0.5 (% o.w.f) each in mixture, 10 gm/liter pad
  Leeching in ppm: 823 ppm
[2]; Exhaust + pad, exhaust 1.0% o.w.f. each in mixture, 1 gm/liter pad
  Leeching in ppm: 584 ppm
[2]; Exhaust + pad, exhaust 1.0% o.w.f. each in mixture, 5 gm/liter pad
  Leeching in ppm: 782 ppm
[2]; Exhaust + pad, exhaust 1.0% o.w.f. each in mixture, 10 gm/liter pad
  Leeching in ppm: 1243 ppm
[2]; Exhaust +Wash + pad, exhaust 0.1% o.w.f. each in mixture, 1 gm/liter pad
  Leeching in ppm: 87 ppm
[2]; Exhaust +Wash + pad, exhaust 0.1% o.w.f. each in mixture, 5 gm/liter pad
  Leeching in ppm: 158 ppm
[2]; Exhaust +Wash + pad, exhaust 0.1% o.w.f. each in mixture, 10 gm/liter pad
  Leeching in ppm: 231 ppm
[2]; Exhaust +Wash + pad, exhaust 0.25% o.w.f. each in mixture, 1 gm/liter pad
  Leeching in ppm: 186 ppm
[2]; Exhaust +Wash + pad, exhaust 0.25% o.w.f. each in mixture, 5 gm/liter pad
  Leeching in ppm: 214 ppm
[2]; Exhaust +Wash + pad, exhaust 0.25% o.w.f. each in mixture, 10 gm/liter pad
  Leeching in ppm: 327 ppm
[2]; Exhaust +Wash + pad, exhaust 0.5 (% o.w.f) each in mixture, 1 gm/liter pad
  Leeching in ppm: 375 ppm
[2]; Exhaust +Wash + pad, exhaust 0.5 (% o.w.f) each in mixture, 5 gm/liter pad
  Leeching in ppm: 432 ppm
[2]; Exhaust +Wash + pad, exhaust 0.5 (% o.w.f) each in mixture, 10 gm/liter pad
  Leeching in ppm: 564 ppm
[2]; Exhaust +Wash + pad, exhaust 1.0% o.w.f. each in mixture, 1 gm/liter pad
  Leeching in ppm: 495 ppm
[2]; Exhaust +Wash + pad, exhaust 1.0% o.w.f. each in mixture, 5 gm/liter pad
  Leeching in ppm: 534 ppm
[2]; Exhaust +Wash + pad, exhaust 1.0% o.w.f. each in mixture, 10 gm/liter pad
  Leeching in ppm: 645 ppm
[2]; exhaust 60° C., solution dosage 1% o.w.f, process time 60 min
  Leaching of active ingredients (in ppm): 23 ppm
[2]; exhaust 60° C., solution dosage 1% o.w.f, process time 90 min
  Leaching of active ingredients (in ppm): 14 ppm
[2]; exhaust 60° C., solution dosage 1% o.w.f, process time 120 min
  Leaching of active ingredients (in ppm): 14 ppm
[2]; exhaust 60° C., solution dosage 1% o.w.f, process time 180 min
  Leaching of active ingredients (in ppm): 12 ppm
[2]; exhaust 60° C., solution dosage 1% o.w.f, process time 240 min
  Leaching of active ingredients (in ppm): 14 ppm
[2]; mixture 0.2% o.w.f. each
  Leaching of active ingredients: 0.2 ppm
[2]; mixture 0.5% o.w.f. each
  Leaching of active ingredients: 0.3 ppm
[2]; mixture 1% o.w.f. each
  Leaching of active ingredients: 0.7 ppm
[2]; exhaust 80° C., 1% o.w.f, 60 min, curing 170° C., curing dwell time 0.5 min
  Leaching of active ingredients (in ppm): 29 ppm
[2]; exhaust 80° C., 1% o.w.f, 60 min, curing 170° C., curing dwell time 1.0 min
  Leaching of active ingredients (in ppm): 25 ppm
[2]; exhaust 80° C., 1% o.w.f, 60 min, curing 170° C., curing dwell time 1.5 min
  Leaching of active ingredients (in ppm): 22 ppm
[2]; exhaust 80° C., 1% o.w.f, 60 min, curing 170° C., curing dwell time 2.0 min
  Leaching of active ingredients (in ppm): 13 ppm
[2]; exhaust 80° C., 1% o.w.f, 60 min, curing 170° C., curing dwell time 2.5 min
  Leaching of active ingredients (in ppm): 17 ppm
[2]; exhaust 80° C., 1% o.w.f, 60 min, curing 170° C., curing dwell time 3.0 min
  Leaching of active ingredients (in ppm): 17 ppm
[2]; exhaust 80° C., 1% o.w.f, 60 min, curing 180° C., curing dwell time 0.5 min
  Leaching of active ingredients (in ppm): 23 ppm
[2]; exhaust 80° C., 1% o.w.f, 60 min, curing 180° C., curing dwell time 1.0 min
  Leaching of active ingredients (in ppm): 13 ppm
[2]; exhaust 80° C., 1% o.w.f, 60 min, curing 180° C., curing dwell time 1.5 min
  Leaching of active ingredients (in ppm): 14 ppm
[2]; exhaust 80° C., 1% o.w.f, 60 min, curing 180° C., curing dwell time 2.0 min
  Leaching of active ingredients (in ppm): 2 ppm
[2]; exhaust 80° C., 1% o.w.f, 60 min, curing 180° C., curing dwell time 2.5 min
  Leaching of active ingredients (in ppm): 12 ppm
[2]; exhaust 80° C., 1% o.w.f, 60 min, curing 180° C., curing dwell time 3.0 min
  Leaching of active ingredients (in ppm): 12 ppm
[2]; exhaust 80° C., 1% o.w.f, 60 min, curing dwell time at 190° C. (title): 0.5 min
  Leaching of active ingredients (in ppm): 19 ppm
[2]; exhaust 80° C., 1% o.w.f, 60 min, curing dwell time at 190° C. (title): 1.0 min
  Leaching of active ingredients (in ppm): 12 ppm
[2]; exhaust 80° C., 1% o.w.f, 60 min, curing dwell time at 190° C. (title): 1.5 min
  Leaching of active ingredients (in ppm): 11 ppm
[2]; exhaust 80° C., 1% o.w.f, 60 min, curing dwell time at 190° C. (title): 2.0 min
  Leaching of active ingredients (in ppm): 11 ppm
[2]; exhaust 80° C., 1% o.w.f, 60 min, curing dwell time at 190° C. (title): 2.5 min
  Leaching of active ingredients (in ppm): 25 ppm

From patent US20210254272A1, “TEXTILES HAVING ANTIMICROBIAL PROPERTIES” (Livinguard AG, priority 2015, published 2021)
